# Measurements published in patent US20250215029A1 (Recludix Pharma, Inc., priority 2022, published 2025).
# pIC50: −log10 of the molar value.
# Target: T1, pY705-STAT3 in PBMC (Homo sapiens, UniProt P40763)
# T1 construct: Cryopreserved Peripheral Blood Mononuclear Cells (PBMC) are from AllCells; host or cells: cryopreserved PBMC
# Assay: MSD-pSTAT-PBMC Assay (pSTAT3, IL-6 stimulated)
# Type: cell-based
# Conditions: PBMC, compound 3 hrs, then 10 ng/mL IL-6 for 10 min; Table 115; read-out: STAT3
# Outline: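 pY705-STAT3 was detected electrochemiluminescently on total-STAT3 capture plates, using lysates of human PBMCs given compound for 3 h and then IL-6 (10 ng/mL, 10 min). Values were background-subtracted against unstimulated wells and set relative to DMSO. IC50 was fitted with variable slope.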
# T1 sequence (P40763 whole entry): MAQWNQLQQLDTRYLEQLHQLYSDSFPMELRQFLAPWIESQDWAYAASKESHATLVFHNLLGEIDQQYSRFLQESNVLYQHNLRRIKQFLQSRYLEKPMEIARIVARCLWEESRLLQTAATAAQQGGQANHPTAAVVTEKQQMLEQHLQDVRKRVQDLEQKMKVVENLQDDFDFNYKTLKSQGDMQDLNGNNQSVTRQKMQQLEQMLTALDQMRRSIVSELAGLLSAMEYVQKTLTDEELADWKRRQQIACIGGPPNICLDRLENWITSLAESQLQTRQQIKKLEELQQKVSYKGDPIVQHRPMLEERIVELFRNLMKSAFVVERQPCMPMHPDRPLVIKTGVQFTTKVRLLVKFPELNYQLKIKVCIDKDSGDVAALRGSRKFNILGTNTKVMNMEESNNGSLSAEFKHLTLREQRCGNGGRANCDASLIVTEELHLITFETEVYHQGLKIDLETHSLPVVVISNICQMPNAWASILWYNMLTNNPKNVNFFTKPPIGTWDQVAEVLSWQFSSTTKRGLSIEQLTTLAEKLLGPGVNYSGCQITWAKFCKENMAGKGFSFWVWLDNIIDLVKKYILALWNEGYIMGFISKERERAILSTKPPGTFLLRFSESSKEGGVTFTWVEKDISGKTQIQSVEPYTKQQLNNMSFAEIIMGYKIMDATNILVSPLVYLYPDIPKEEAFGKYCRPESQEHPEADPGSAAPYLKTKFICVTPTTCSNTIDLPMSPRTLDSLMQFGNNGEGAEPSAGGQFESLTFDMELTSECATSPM
row,Structure (SMILES),pIC50
1,"CC(C)C[C@H](NP(=O)(Cc1ccc2sc(C(=O)N[C@H]3CCC[C@H]4CC[C@@H](C(=O)N5CC(c6cccnc6)C5)N4C3=O)cc2c1)Oc1ccccc1)C(=O)OCc1ccccc1 (stereo partly drawn) [Compound 390, benzyl (((2-(((3S,6S,9aS)-5-oxo-3-(3-(pyridin-3-yl)azetidine-1-carbonyl)octahydro-1H-pyrrolo[1,2-a]azepin-6-yl)carbamoyl)benzo [b]thiophen-5-yl)methyl)(phenoxy)phosphoryl)-L-leucinate]",6.00 to 7.00
2,"CCCOC(=O)[C@H](C)NP(=O)(Cc1ccc2sc(C(=O)N[C@H]3CCC[C@H]4CC[C@@H](C(=O)N5CC(c6nccc(C#N)n6)C5)N4C3=O)cc2c1)Oc1ccccc1 (stereo partly drawn) [Compound 290, propyl (((2-(((3S,6S,9aS)-3-(3-(4-cyanopyrimidin-2-yl)azetidine-1-carbonyl)-5-oxooctahydro-1H-pyrrolo[1,2-a]azepin-6-yl)carbamoyl)benzo [b]thiophen-5-yl)methyl)(phenoxy)phosphoryl)-L-alaninate]",6.00 to 7.00
3,"CCC(CC)COC(=O)[C@H](C)NP(=O)(Cc1ccc2sc(C(=O)N[C@H]3CCC[C@H]4CC[C@@H](C(=O)N5CC(c6cccnc6)C5)N4C3=O)cc2c1)Oc1ccccc1 (stereo partly drawn) [Compound 258, 2-ethylbutyl (((2-(((3S,6S,9aS)-5-oxo-3-(3-(pyridin-3-yl)azetidine-1-carbonyl)octahydro-1H-pyrrolo[1,2-a]azepin-6-yl)carbamoyl)benzo [b]thiophen-5-yl)methyl)(phenoxy)phosphoryl)-L-alaninate]",> 7.00
4,"CCCOC(=O)[C@H](C)N[P@](=O)(Oc1ccccc1)[C@H](F)c1ccc2sc(C(=O)N[C@H]3CCC[C@H]4CC[C@@H](C(=O)N5CC(c6cnccc6N6CCOCC6)C5)N4C3=O)cc2c1 (single isomer, unassigned) [Compound 1044]",> 7.00
5,"CCCOC(=O)[C@H](C)NP(=O)(Cc1ccc2sc(C(=O)N[C@H]3CCC[C@H]4CC[C@@H](C(=O)N5CC(c6cccnc6)C5)N4C3=O)cc2c1)OCC(C)(F)F (stereo partly drawn) [Compound 437, propyl ((2,2-difluoropropoxy)((2-(((3S,6S,9aS)-5-oxo-3-(3-(pyridin-3-yl)azetidine-1-carbonyl)octahydro-1H-pyrrolo[1,2-a]azepin-6-yl)carbamoyl)benzo [b]thiophen-5-yl)methyl)phosphoryl)-L-alaninate]",6.00 to 7.00
6,"CCCOC(=O)[C@H](C)NP(=O)(Oc1ccccc1)[C@@H](F)c1ccc2sc(C(=O)N[C@H]3CCC[C@H]4CC[C@@H](C(=O)N5CC(c6cncnc6N6CC[C@H]6COC)C5)N4C3=O)cc2c1 (stereo partly drawn) [Compound 1071, propyl (((R)-fluoro(2-(((3S,6S,9aS)-3-(3-(4-((S)-2-(methoxymethyl)azetidin-1-yl)pyrimidin-5-yl)azetidine-1-carbonyl)-5-oxooctahydro-1H-pyrrolo[1,2-a]azepin-6-yl)carbamoyl)benzo [b]thiophen-5-yl)methyl)(phenoxy)phosphoryl)-L-alaninate]",> 7.00
7,"CCCOC(=O)[C@H](C)NP(=O)(Cc1ccc2sc(C(=O)N[C@H]3CCCC[C@H]4CC[C@@H](C(=O)N5CC(c6cnccc6F)C5)N4C3=O)cc2c1)Oc1ccccc1 (stereo partly drawn) [Compound 274, propyl (((2-(((3S,6S,10aS)-3-(3-(4-fluoropyridin-3-yl)azetidine-1-carbonyl)-5-oxodecahydropyrrolo [1,2-a]azocin-6-yl)carbamoyl)benzo [b]thiophen-5-yl)methyl)(phenoxy)phosphoryl)-L-alaninate]",> 7.00
8,"CCCC(=O)SCCOP(=O)(OCCSC(=O)CCC)C(F)(F)c1ccc2sc(C(=O)N[C@H]3CCC[C@H]4CC[C@@H](C(=O)N5CC(c6nncn6C)C5)N4C3=O)cc2c1 [Compound 964, S,S′-((((difluoro(2-(((3S,6S,9aS)-3-(3-(4-methyl-4H-1,2,4-triazol-3-yl)azetidine-1-carbonyl)-5-oxooctahydro-1H-pyrrolo[1,2-a]azepin-6-yl)carbamoyl)benzo [b]thiophen-5-yl)methyl)phosphoryl)bis(oxy))bis(ethane-2,1-diyl)) dibutanethioate]",6.00 to 7.00
9,"CCCOC(=O)[C@H](C)NP(=O)(Cc1ccc2sc(C(=O)N[C@H]3CCC[C@H]4CC[C@@H](C(=O)N5CC(c6cccnc6)C5)N4C3=O)cc2c1)OCCOC (stereo partly drawn) [Compound 438, propyl ((2-methoxyethoxy)((2-(((3S,6S,9aS)-5-oxo-3-(3-(pyridin-3-yl)azetidine-1-carbonyl)octahydro-1H-pyrrolo[1,2-a]azepin-6-yl)carbamoyl)benzo [b]thiophen-5-yl)methyl)phosphoryl)-L-alaninate]",5.52 to 6.00
10,"CCCOC(=O)[C@H](C)N[P@](=O)(Oc1ccccc1)[C@H](F)c1ccc2sc(C(=O)N[C@H]3CCC[C@H]4CC[C@@H](C(=O)N5CC(c6cnccc6F)C5)N4C3=O)cc2c1 (single isomer, unassigned) [Compound 997]",> 7.00
11,"COc1ccncc1C1CN(C(=O)[C@@H]2CC[C@@H]3CCC[C@H](NC(=O)c4cc5cc([C@H](F)[P@@](=O)(N[C@@H](C)C(=O)OC(C)C)Oc6ccccc6)ccc5s4)C(=O)N32)C1 (single isomer, unassigned) [Compound 1052]",6.00 to 7.00
12,"CCCCOC(=O)[C@@H]1CCCN1P(=O)(Cc1ccc2sc(C(=O)N[C@H]3CCC[C@H]4CC[C@@H](C(=O)N5CC(c6cccnc6)C5)N4C3=O)cc2c1)Oc1ccccc1 (stereo partly drawn) [Compound 1003, butyl (((2-(((3S,6S,9aS)-5-oxo-3-(3-(pyridin-3-yl)azetidine-1-carbonyl)octahydro-1H-pyrrolo[1,2-a]azepin-6-yl)carbamoyl)benzo [b]thiophen-5-yl)methyl)(phenoxy)phosphoryl)-L-prolinate]",5.52 to 6.00
13,"CCCOC(=O)[C@H](C)N[P@](=O)(Oc1ccccc1)[C@@H](F)c1ccc2sc(C(=O)N[C@H]3C[C@@H](C)C[C@H]4CC[C@@H](C(=O)N5CC(c6cnccc6OC)C5)N4C3=O)cc2c1 (single isomer, unassigned) [Compound 1059]",> 7.00
14,"Cc1ccncc1C1CN(C(=O)[C@@H]2CC[C@@H]3CCC[C@H](NC(=O)c4cc5cc(C(F)(F)P(=O)(OCCSC(=O)C(C)(C)C)OCCSC(=O)C(C)(C)C)ccc5s4)C(=O)N32)C1 [Compound 968, S,S′-((((difluoro(2-(((3S,6S,9aS)-3-(3-(4-methylpyridin-3-yl)azetidine-1-carbonyl)-5-oxooctahydro-1H-pyrrolo[1,2-a]azepin-6-yl)carbamoyl)benzo [b]thiophen-5-yl)methyl)phosphoryl)bis(oxy))bis(ethane-2,1-diyl))bis(2,2-dimethyl-propanethioate)]",> 7.00
15,"CCCOC(=O)[C@H](C)NP(=O)(Cc1ccc2sc(C(=O)N[C@H]3CCC[C@H]4CC[C@@H](C(=O)N5CC(c6cncnc6C)C5)N4C3=O)cc2c1)Oc1ccccc1 (stereo partly drawn) [Compound 260, propyl (((2-(((3S,6S,9aS)-3-(3-(4-methylpyrimidin-5-yl)azetidine-1-carbonyl)-5-oxooctahydro-1H-pyrrolo[1,2-a]azepin-6-yl)carbamoyl)benzo [b]thiophen-5-yl)methyl)(phenoxy)phosphoryl)-L-alaninate]",5.52 to 6.00
16,"CCCOC(=O)[C@H](C)NP(=O)(Cc1ccc2sc(C(=O)N[C@H]3CCC[C@H]4CC[C@@H](C(=O)N5CC(c6cnccc6N6CCC6)C5)N4C3=O)cc2c1)Oc1ccccc1 (stereo partly drawn) [Compound 1031, propyl (((2-(((3S,6S,9aS)-3-(3-(4-(azetidin-1-yl)pyridin-3-yl)azetidine-1-carbonyl)-5-oxooctahydro-1H-pyrrolo[1,2-a]azepin-6-yl)carbamoyl)benzo [b]thiophen-5-yl)methyl)(phenoxy)phosphoryl)-L-alaninate]",> 7.00
17,"CCCOC(=O)[C@H](C)NP(=O)(Cc1ccc2sc(C(=O)N[C@H]3C[C@@H](C)C[C@H]4CC[C@@H](C(=O)N5CC(c6cnccc6N(C)C)C5)N4C3=O)cc2c1)Oc1ccccc1 (stereo partly drawn) [Compound 1021, propyl (((2-(((3S,6S,8R,9aR)-3-(3-(4-(dimethylamino)pyridin-3-yl)azetidine-1-carbonyl)-8-methyl-5-oxooctahydro-1H-pyrrolo[1,2-a]azepin-6-yl)carbamoyl)benzo [b]thiophen-5-yl)methyl)(phenoxy)phosphoryl)-L-alaninate]",> 7.00
18,"CCCOC(=O)[C@H](COC)NP(=O)(Cc1ccc2sc(C(=O)N[C@H]3CCC[C@H]4CC[C@@H](C(=O)N5CC(c6cccnc6)C5)N4C3=O)cc2c1)Oc1ccccc1 (stereo partly drawn) [Compound 430, propyl O-methyl-N-(((2-(((3S,6S,9aS)-5-oxo-3-(3-(pyridin-3-yl)azetidine-1-carbonyl)octahydro-1H-pyrrolo[1,2-a]azepin-6-yl)carbamoyl)benzo [b]thiophen-5-yl)methyl)(phenoxy)phosphoryl)-L-serinate]",6.00 to 7.00
19,"CCCOC(=O)[C@H](C)NP(=O)(Oc1ccccc1)[C@@H](F)c1ccc2sc(C(=O)N[C@H]3CC[C@@H](CC)C[C@H]4CC[C@@H](C(=O)N5CC(c6cnccc6N6CCC6)C5)N4C3=O)cc2c1 (stereo partly drawn) [Compound 493, propyl (((R)-(2-(((3S,6S,9R,10aR)-3-(3-(4-(azetidin-1-yl)pyridin-3-yl)azetidine-1-carbonyl)-9-ethyl-5-oxodecahydropyrrolo [1,2-a]azocin-6-yl)carbamoyl)benzo [b]thiophen-5-yl)fluoromethyl) (phenoxy)phosphoryl)-L-alaninate]",> 7.00

# Same assay, conditions: STAT3, PBMC, compound 3 hrs, then 10 ng/mL IL-6 for 10 min; Table 115
row,Structure (SMILES),pIC50
1,"CCCCOC(=O)[C@H](C)NP(=O)(Cc1ccc2sc(C(=O)N[C@H]3CCC[C@H]4CC[C@@H](C(=O)N5CC(c6cccnc6)C5)N4C3=O)cc2c1)Oc1cccc2ccccc12 (stereo partly drawn) [Compound 1004, butyl ((naphthalen-1-yloxy)((2-(((3S,6S,9aS)-5-oxo-3-(3-(pyridin-3-yl)azetidine-1-carbonyl)octahydro-1H-pyrrolo[1,2-a]azepin-6-yl)carbamoyl)benzo [b]thiophen-5-yl)methyl)phosphoryl)-L-alaninate]",6.00 to 7.00
